# Several values for one entry are separate records, joined by “and”; a condition that tells them apart may be missing. Equal entries are not always repeated. Entries after “also recorded” stand apart in the source; their conditions may differ. Where two headings read alike, the source gives them in different places.
# Key:
# [1] = biological target: T1, BTFMA-labeled A2AR-V229C (Homo sapiens, UniProt P29274, V229C); assay: 19F NMR of functional state populations (S1-2, S3, S3'); conditions: for effect on active state population: 20 mM cation, saturating NECA and Gαs peptide, 100 mM NaCl; for effect on populations of functional states: apo A2AR in MNG-3 micelles, divalent cations 100–500 mM, KCl with 10 or 100 mM NaCl
# T1 construct: alpha-factor secretion leader (Fα-Factor) (N); Flag (N); TEV site (N); His10 (H10) (C); made in house; host or cells: Pichia pastoris SMD 1163
# T1 sequence (P29274 1-316 V229C limits assumed): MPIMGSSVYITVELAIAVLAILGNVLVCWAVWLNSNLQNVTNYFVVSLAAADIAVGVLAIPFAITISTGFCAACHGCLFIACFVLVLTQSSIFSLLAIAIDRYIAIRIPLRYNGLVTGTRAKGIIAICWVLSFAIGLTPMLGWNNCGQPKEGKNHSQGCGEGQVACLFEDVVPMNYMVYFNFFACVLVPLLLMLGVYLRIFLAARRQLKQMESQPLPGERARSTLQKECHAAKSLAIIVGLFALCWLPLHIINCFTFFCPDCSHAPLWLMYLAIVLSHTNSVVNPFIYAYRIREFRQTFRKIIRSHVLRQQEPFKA
# Procedure: Here, spectra are deconvolved into three resonances, referred to as S1−2, S3, and S3′, in keeping with previously published work[1].
# NMR samples typically consisted of 250 μL volumes of 25–200 μM A2AR-V229C in 50 mM HEPES buffer (pH 7.4) and 100 mM NaCl, doped with 10% D2O. The receptor was stabilized in 0.1% MNG-3 and 0.02% CHS. All ^19F NMR experiments were performed on a 600 MHz Varian Inova spectrometer using a cryogenic triple resonance probe, with the high frequency channel tunable to either ^1H or ^19F. […] Most spectra were acquired with 10,000–50,000 scans depending on sample concentration. Processing typically involved zero filling, and exponential apodization equivalent to 20 Hz line broadening.
# [2] = biological target: T2, A2AR + Gs (Homo sapiens, UniProt P29274, V229C); assay: [3H]NECA binding in A2AR/Gs-infected Sf9 membranes; conditions: for effect of cation on specific [3H]NECA binding / EC50: 10 nM [3H]NECA; for effect of cation on specific [3H]NECA binding: increasing cation concentration; for effect on [3H]NECA high affinity saturation: 2.5 mM cation; for EC50: read-out: half-maximal cation concentration for enhancement of [3H]NECA binding, 100 mM NaCl
# T2 construct: Flag (N); TEV site (N); His10 (H10) (C); expressed in transfected cells; host or cells: Sf9 insect cells, baculovirus co-infection (A2AR, Gαs, Gβγ); membranes
# T2 sequence (P29274 1-316 V229C limits assumed): as above
# T2 sequence (P63092 whole entry partner): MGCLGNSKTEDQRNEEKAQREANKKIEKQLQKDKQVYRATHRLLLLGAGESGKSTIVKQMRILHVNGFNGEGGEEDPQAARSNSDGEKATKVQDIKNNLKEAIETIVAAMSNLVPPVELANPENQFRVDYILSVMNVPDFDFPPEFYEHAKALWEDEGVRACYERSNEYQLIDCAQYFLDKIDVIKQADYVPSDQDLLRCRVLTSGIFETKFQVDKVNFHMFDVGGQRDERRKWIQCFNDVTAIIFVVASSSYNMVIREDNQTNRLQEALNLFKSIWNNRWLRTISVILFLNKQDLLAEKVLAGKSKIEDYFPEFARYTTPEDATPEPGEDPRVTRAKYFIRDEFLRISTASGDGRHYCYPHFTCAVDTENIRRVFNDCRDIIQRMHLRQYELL
# T2 sequence (P62873 whole entry partner): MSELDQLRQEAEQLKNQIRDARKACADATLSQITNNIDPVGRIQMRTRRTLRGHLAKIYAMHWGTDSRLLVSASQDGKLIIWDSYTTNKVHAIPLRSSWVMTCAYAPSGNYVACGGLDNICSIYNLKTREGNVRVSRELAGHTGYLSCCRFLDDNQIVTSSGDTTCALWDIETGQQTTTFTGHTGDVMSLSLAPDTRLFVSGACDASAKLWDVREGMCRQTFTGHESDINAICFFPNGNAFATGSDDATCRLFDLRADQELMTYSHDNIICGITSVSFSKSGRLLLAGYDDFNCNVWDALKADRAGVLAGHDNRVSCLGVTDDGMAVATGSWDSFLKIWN
# T2 sequence (P59768 2-68 partner limits assumed): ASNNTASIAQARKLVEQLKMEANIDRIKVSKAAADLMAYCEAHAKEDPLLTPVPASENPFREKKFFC
# Description: The above ^19F NMR observations are further recapitulated in radioligand binding assays in Sf9 cell membranes in which the identical A2AR construct was co-expressed with the heterotrimeric stimulatory G protein, Gαsβγ.
# Error bars for radioligand binding assays are defined based on three replicates
# [3] = biological target: T3, apo A2AR-V229C (Homo sapiens, UniProt P29274, V229C); assay: 25Mg NMR line width binding isotherm and Ca2+ competition; set-up: alpha-factor secretion leader (Fα-Factor) (N); Flag (N); TEV site (N); His10 (H10) (C); made in house; host or cells: Pichia pastoris SMD 1163
# T3 sequence (P29274 1-316 V229C limits assumed): as the sequence (P29274 1-316 V229C limits assumed) above
# Procedure: The experiment was performed on an Agilent DD2-600 NMR, equipped with a 10 mm low gamma direct detect probe and low frequency pre-amp. The experimental parameters used were as follows: 20 °C, a Larmor frequency of 36.72 MHz, a spectral width of 2.5 kHz, 1.1 s acquisition time, 0.5 s relaxation time, a 30 µs 90° excitation pulse, and between 128 and 2048 scans depending on the signal-to-noise ratio. For the Kd determination of Mg^2+ the following protocol was used: A 1 M MgCl2 solution with 10 mM DyCl3 in D2O was used as a reference and was placed in a 5-mm OD tube. A sample of 1.5 mL of the protein solution was placed in a 10-mm OD NMR tube. The reference tube was thoroughly cleaned and inserted into the 10-mm tube and centered with a plastic cap. Titration volumes of 3–37 µL of 4.64 M MgCl2 were added directly to the 10-mm tube which was then gently mixed using a vortex shaker. The sample was allowed to equilibrate in the magnet for 10 min at the set temperature and the sample was then locked, tuned, gradient shimmed and acquired. […] The sample was allowed to equilibrate at the set temperature in the magnet for 10 min and then locked, tuned, gradient shimmed and acquired. The Kd and Ki values were determined, using GraphPad Prism 6 software, by fitting the data to the formula, y = A × x/(Kd + x), where x represents the cation concentration.
# [4] = biological target: T3, apo A2AR-V229C; assay: 23Na NMR binding isotherm (line width / chemical shift)
# Procedure: Relaxation dispersions associated with ^23Na CPMG experiments, shown in Fig. 2e, provide an additional measure of cation binding and exchange dynamics.
# The experiments were performed on a 600 MHz Varian VNMRS spectrometer using a room temperature XH broadband probe (X-nucleus on the inner coil). […] An external ^23Na reference was prepared by mixing 50 mM NaCl and 50 mM TmCl3 in equal volumes prior to loading into the coaxial insert. […] Information regarding binding can be reliably obtained by observing the shift of the free peak and line broadening associated with fast exchange between “free” and “bound” states.
effect of cation on specific [3H]NECA binding [2],SMILES,effect on active state population [1],effect on populations of functional states [1],also measured
significantly enhance,"[Ca+2].[Cl-].[Cl-] [Ca^2+, CaCl2]",detectable increase in the proportion of active states,shift the equilibrium of apo A2AR toward the active states,"effect on [3H]NECA high affinity saturation [2]: enhance maximal specific [^3H]NECA binding and affinity (Kd); EC50 [2]: 0.35 to 0.4 mM; EC50 ([2]; listed as Ca2+): 0.35 mM; Ki ([3]; 50 mM 25Mg2+, increasing CaCl2, 50 µM apo-A2AR-V229C, read-out: Ki of Ca2+ displacement of Mg2+): 98 ± 41 mM"
no positive allosteric effects,[Fe+2] [Fe^2+],did not,–,–
–,"NC(N)=NC(=O)c1nc(Cl)c(N2CCCCCC2)nc1N [HMA, 5-(N,N-hexamethylene)amiloride, reference compound]",–,–,"competition with sodium in 23Na NMR binding isotherm ([4]; 100 mM NaCl, stoichiometric equivalents of HMA): compete with sodium"
–,[Cl-].[K+] [KCl],–,no significant change,–
significantly enhance,"[Cl-].[Cl-].[Mg+2] [Mg^2+, MgCl2]",detectable increase in the proportion of active states; also recorded: obvious increase in the active S3′ state population,shift the equilibrium of apo A2AR toward the active states,"effect on [3H]NECA high affinity saturation [2]: enhance maximal specific [^3H]NECA binding and affinity (Kd); EC50 [2]: 0.35 to 0.4 mM; EC50 ([2]; listed as Mg2+): 0.35 mM; Kd ([3]; 50 µM apo-A2AR-V229C, 100 mM Na+, N=1, fitting error, read-out: dissociation constant Kd of MgCl2): 60 ± 15 mM"
–,"[Cl-].[Na+] [sodium, NaCl]",–,shifts the equilibrium toward the inactive ensemble,"Kd ([4]; read-out: dissociation constant Kd of sodium, apo A2AR-V229C 50 μM, line width-based isotherm, 10–1000 mM NaCl): 60 mM and ~60 mM"

SMILES,effect of cation on specific [3H]NECA binding [2],effect on active state population [1],effect on populations of functional states [1],also measured
"[Cl-].[Cl-].[Zn+2] [Zn^2+, ZnCl2]",reduce high affinity binding; also recorded: reduced binding; also recorded: no positive allosteric effects,–,–,–
